Measurements from paper PMC9838390, “Discovery and biosynthesis of karnamicins as angiotensin converting enzyme inhibitors” (Nature Communications, 2023).

Experiment: Stability in enzyme reaction buffer
Assay type: physicochemical
Conditions: reaction buffer (50 mM Tris-HCl, pH 7.5, 30 °C)
Description: To further examine the catalytic role of methyltransferase KnmF and monooxygenases KnmB1 and KnmB2 during the karnamicin assembly process, we decided to characterize their enzyme activities in vitro. For KnmF, we synthesized 28 (Fig. 3, Supplementary Figs. 111–116, and Supplementary Table 19), a putative dedicated substrate of KnmF with a trihydroxypyridine core. Subsequently, a time course analysis of the enzyme-catalyzed reaction was performed with KnmF expressed by Escherichia coli BL21 (DE3) cells (Supplementary Fig. 117) and 28. Intriguingly, immediately following the consumption of 28, a compound 30 appeared. The subsequent decrease in abundance of 30 was accompanied by the accumulation of karnamicin E1 (1) (Fig. 4a). […]
The reaction of KnmF was carried out at 30 °C in a 100 µL system containing 50 mM Tris-HCl buffer (pH 7.5), 1 mM compound 28, 2 mM SAM, and 2 μM KnmF. […] After centrifugation (10 min at 13,523×g), the supernatant was analyzed by HPLC-DAD with solvent gradient as follows: T = 0 min, 55% B; T = 13.5 min, 55% B; T = 19 min, 65% B; T = 35 min, 65% B; T = 40 min, 100% B; T = 45 min, 100% B; T = 45.1 min, 55% B; T = 51 min, 55% B (A, H2O + 0.1% CH3COOH, v/v; B, MeCN), and the column temperature was 25 °C (Analytical method B).

- stability in the reaction buffer: degraded rapidly
SMILES: CC(C)CCCCc1nc(-c2nc(C(N)=O)c(O)c(O)c2O)cs1 [Compound 28]
